According to US9260382B2, “Methods of reducing virulence in bacteria” (priority 2010, dated 2016):

Experiments:
hrpA promoter (T3SS) [1] = test: hrpA promoter-probe phrpA in Erwinia amylovora 273, flow cytometry; format: cell-based; details: Ea273 (phrpA), HIM + 100 μM compound
Protocol: Wild-type Erwinia amylovora 273 was used in this study. The promoter-probe plasmid phrpA was constructed as follows. The hrpA promoter region of Erwinia amylovora 273 was amplified and cloned into pPROBE-NT to produce PhrpA. Plasmid PhrpA was electroporated into Erwinia amylovora 273. Expression of hrpA was analyzed using a FACS Calibur flow cytometer (BD Biosciences, CA). Wild-type Erwinia amylovora 273 containing phrpA was cultured in a hrp-inducing medium (HIM) containing dimethyl sulfoxide (DMSO; solvent of chemical compounds), or HIM supplemented with 100 μM of each compound, and promoter activity was assessed at 6 h and 9 h by measuring GFP intensity using flow cytometry (Table 19).

hrpA promoter (T3SS) [2] = test: GFP reporter plasmid phrpA, flow cytometry (FACS) of hrpA promoter activity; format: cell-based, Dickeya dadantii 3937; details: for mean fluorescence intensity of GFP, hrpA expression: D. dadantii 3937 (phrpA), MM + 100 μM compound; for inhibitory activity on T3SS gene (hrpA) expression, in words: D. dadantii 3937, reporter plasmid phrpA, 100 μM
Protocol: FACS analysis of promoter activity of dspE, hrpA, hrpL, hrpN, and hrpS was carried out as described (Peng et al., 2006). Briefly, the wild-type Ech3937 and the mutant strains carrying the promoter reporter plasmid were grown on LB broth at 28° C. overnight and transferred to appropriate media. For FACS analysis, samples were collected by centrifugation, washed with 1× phosphate buffer saline (PBS) at 13,000 rpm for 1 min, and re-suspended in 1×PBS to ca 10^6 CFU/ml prior to being run in a FACS Calibur flow cytometer (BD Biosciences, CA). Three replicates were performed for each treatment.
To identify potential compounds that repress activation of T3SS, analogs and isomers of TCA and intermediates of salicylic acid and phenypropanoid biosynthesis pathways in plants were further screened for their effect on Ech3937 hrpA expression by flow cytometry (Table 9). A green fluorescent protein (GFP) reporter plasmid phrpA (pProbe-AT derivative with PCR fragment containing hrpA promoter region) was constructed, resulting in a transcriptional fusion of hrpA promoter with GFP gene. Bacterial cells containing phrpA plasmid were grown in MM supplemented with 0.1 mM of each compound. GFP intensity, which is a measurement of hrpA promoter activity, was measured by flow cytometry.
hrpA encodes the T3SS pilus required for protein translocation into plant cells. To test for an inhibitory effect on T3SS hrpA expression, the reporter plasmid phrpA was used to measure the effects of these compounds on hrpA expression. The reporter plasmid phrpA encodes a transcriptional fusion of the hrpA promoter controlling expression of green fluorescent protein (gfp). 50 μL of bacterial suspension of D. dadantii 3937 carrying the hrpA reporter (optical density at 600 nm OD600=1.0) was used as the initial inoculum and added to 5 mL of MM or MM supplemented with 100 μM of one of the compounds. The expression level of hrpA of these bacterial cells was measured by measuring GFP intensity of gated populations of the bacterial cells by flow cytometry and analyzed with Cell Quest software (BD Biosciences, San Jose, Calif.). The fluorescence intensities were an average GFP fluorescence intensity of total bacterial cells. Compounds were assayed two different times (12 and 24 h of bacterial growth) with T3SS minimal media (MM) as the control treatment for each set of experiment. Values presented in Table 14 are mean fluorescence intensity of GFP, representative of two experiments, presented as the average of three replicates with standard deviation (SD).

Compound | Avg MFI ± SD, hrpA expression (hrpA promoter (T3SS) [1]; 6 h) | Avg MFI ± SD, hrpA expression (hrpA promoter (T3SS) [1]; 9 h) | mean fluorescence intensity of GFP, hrpA expression (hrpA promoter (T3SS) [2]; 12 h) | mean fluorescence intensity of GFP, hrpA expression (hrpA promoter (T3SS) [2]; 24 h) | inhibitory activity on T3SS gene (hrpA) expression, in words (hrpA promoter (T3SS) [2]) | minimal effective concentration (hrpA promoter (T3SS) [2]; Dickeya dadantii, read-out: minimal inhibitory concentration on hrpA expression (concentration showing inhibitory effect)) [µM]
NC/C=C/c1ccc(O)cc1 [Compound 117, para-Coumarylamine] | 452.6 ± 9.5 | 547.9 ± 112.4 | 49.8 ± 1.6 | 73.1 ± 2.0 | did not show any inhibitory activity | –
NC(=O)/C=C/c1ccc(O)cc1 [Compound 102, trans-4-Hydroxycinnamaide] | 1134.0 ± 36.7 | 766.4 ± 94.8 | 21.1 ± 1.2 | 60.8 ± 10.6 | did not show any inhibitory activity | 100
O=C(O)/C=C/c1ccc(-c2ccccc2)cc1 [Compound 108, trans-4-Phenylcinnamic acid] | – | – | 31.6 ± 2.5 | 109.0 ± 19.8 | inactive | –
CCOS(=O)(=O)/C=C/c1ccc(O)cc1 [Compound 122, Ethyl trans-2-(4-hydroxyphenyl)-ethenylsulfonate] | 2042.8 ± 20.7 | 2900.6 ± 120.1 | 38.6 ± 1.8 | 60.9 ± 0.8 | did not exhibit any activity | –
COc1ccc(/C=C/CN)cc1 [Compound 119, trans-4-Methoxycinnamylamine] | 208.6 ± 18.6 | 232.9 ± 44.4 | 47.8 ± 3.2 | 68.2 ± 10.4 | did not show any inhibitory activity | –
NC(=O)/C=C/c1ccc(Cl)cc1 [Compound 109, trans-4-Chlorocinnamide] | 172.9 ± 20.5 | 90.6 ± 12.0 | 35.7 ± 6.3 | 81.5 ± 3.8 | – | –
O=C(O)[C@@H]1C[C@H]1c1ccc(O)cc1 (relative stereo) [Compound 107, trans-2-(4-Hydroxyphenyl)-1-cyclopropanecarboxylic acid] | 1464.3 ± 76.5 | 1348.0 ± 82.6 | 45.9 ± 2.7 | 122.1 ± 17.9 | no inhibitory activity | –
CCOP(=O)(/C=C/c1ccc(O)cc1)OCC [Compound 114, Diethyl trans-2-(4-hydroxyphenyl)-vinylphosphonate] | 495.8 ± 14.2 | 661.2 ± 134.3 | 55.4 ± 1.0 | 76.5 ± 5.6 | did not exhibit any activity | –
O=C(O)/C=C/c1ccc(CO)cc1 [Compound 124, trans-4-Hydroxymethylcinnamic acid] | 419.8 ± 12.2 | 444.3 ± 11.4 | 44.9 ± 3.5 | 78.1 ± 3.4 | did not show any inhibitory activity | –
